Assay results published in patent EP2970215B1, “PYRROLIDINE DERIVATIVES, PHARMACEUTICAL COMPOSITIONS CONTAINING THEM, AND THEIR USE IN THERAPY” (AbbVie Deutschland GmbH & Co. KG, priority 2013, dated 2014).

biological target: T1, human GlyT1c transporter (Homo sapiens, UniProt P48067); experiment: Radioligand binding assay using recombinant CHO cell membranes expressing human GlyT1; details: radioligand binding to human GlyT1c transporter-expressing membranes
T1 construct: expressed in transfected cells; host or cells: CHO cells (recombinant; line hGlyT1c_5_CHO is named for the uptake assay)
T1 sequence (P48067 1-706): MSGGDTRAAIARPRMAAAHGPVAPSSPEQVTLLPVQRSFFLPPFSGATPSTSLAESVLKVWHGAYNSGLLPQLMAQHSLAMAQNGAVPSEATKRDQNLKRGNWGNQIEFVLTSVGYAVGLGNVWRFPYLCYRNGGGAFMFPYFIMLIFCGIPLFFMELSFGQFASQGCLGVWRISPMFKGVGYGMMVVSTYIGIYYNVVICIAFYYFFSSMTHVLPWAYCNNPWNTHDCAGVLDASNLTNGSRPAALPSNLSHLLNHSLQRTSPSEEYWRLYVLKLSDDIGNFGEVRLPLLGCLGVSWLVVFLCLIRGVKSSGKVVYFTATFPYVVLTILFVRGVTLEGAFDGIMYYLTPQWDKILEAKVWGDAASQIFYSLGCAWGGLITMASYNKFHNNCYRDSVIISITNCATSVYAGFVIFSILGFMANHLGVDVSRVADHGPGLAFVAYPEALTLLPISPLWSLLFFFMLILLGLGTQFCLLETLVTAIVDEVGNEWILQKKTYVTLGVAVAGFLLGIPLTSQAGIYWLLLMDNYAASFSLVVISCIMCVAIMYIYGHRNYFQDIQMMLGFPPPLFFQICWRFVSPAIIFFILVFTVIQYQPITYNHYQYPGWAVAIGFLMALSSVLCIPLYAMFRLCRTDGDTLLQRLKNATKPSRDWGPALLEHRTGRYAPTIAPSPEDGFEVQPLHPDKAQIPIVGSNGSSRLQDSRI
Excerpt: 2. Radioligand binding assays using recombinant CHO cell membranes expressing human GlyT1: […]

`Cn1cnc(S(=O)(=O)N2C[C@@H](Nc3cc(Cl)cc(C#N)c3)[C@H](c3ccccc3)C2)c1` (relative stereo) [Example 80, 3-chloro-5-({trans-1-[(1-methyl-1H-imidazol-4-yl)sulfonyl]-4-phenylpyrrolidin-3-yl}amino)benzonitrile] and `Cc1cc(C#N)cc(N[C@@H]2CN(S(=O)(=O)c3cn(C)cn3)C[C@H]2c2ccccc2)c1` (relative stereo) [Example 101, 3-methyl-5-({trans-1-[(1-methyl-1H-imidazol-4-yl)sulfonyl]-4-phenylpyrrolidin-3-yl}amino)benzonitrile] cannot be ordered by Ki: ≤ 1 µM for the first, ≤ 1 µM for the second.

`Cn1cnc(S(=O)(=O)N2C[C@@H](Nc3cc(C#N)ccc3Cl)[C@H](c3ccccc3)C2)c1` (relative stereo) [Example 81, 4-chloro-3-({trans-1-[(1-methyl-1H-imidazol-4-yl)sulfonyl]-4-phenylpyrrolidin-3-yl}amino)benzonitrile] and `Cc1ccc(C#N)cc1N[C@@H]1CN(S(=O)(=O)c2cn(C)cn2)C[C@H]1c1ccccc1` (relative stereo) [Example 82, 4-methyl-3-({trans-1-[(1-methyl-1H-imidazol-4-yl)sulfonyl]-4-phenylpyrrolidin-3-yl}amino)benzonitrile] cannot be ordered by Ki: ≤ 10 µM for the first, ≤ 10 µM for the second.

`Cc1c(C#N)cccc1N[C@@H]1CN(S(=O)(=O)c2cn(C)cn2)C[C@H]1c1ccccc1` (relative stereo) [Example 83, 2-methyl-3-({trans-1-[(1-methyl-1H-imidazol-4-yl)sulfonyl]-4-phenylpyrrolidin-3-yl}amino)benzonitrile] and `COc1ccc(N[C@@H]2CN(S(=O)(=O)c3cn(C)cn3)C[C@H]2c2ccccc2)cc1C#N` (relative stereo) [Example 100, 2-methoxy-5-({trans-1-[(1-methyl-1H-imidazol-4-yl)sulfonyl]-4-phenylpyrrolidin-3-yl}amino)benzonitrile] cannot be ordered by Ki: ≤ 1 µM for the first, ≤ 10 µM for the second.

`Cc1ccccc1N[C@@H]1CN(S(=O)(=O)c2cn(C)cn2)C[C@H]1c1ccc(F)cc1` (relative stereo) [Example 84, trans-4-(4-fluorophenyl)-1-[(1-methyl-1H-imidazol-4-yl)sulfonyl]-N-(2-methylphenyl)pyrrolidin-3-amine] and `Cn1cnc(S(=O)(=O)N2C[C@@H](Nc3ccccc3F)[C@H](c3ccc(F)cc3)C2)c1` (relative stereo) [Example 90, trans-N-(2-fluorophenyl)-4-(4-fluorophenyl)-1-[(1-methyl-1H-imidazol-4-yl)sulfonyl]pyrrolidin-3-amine] cannot be ordered by Ki: ≤ 1 µM for the first, ≤ 1 µM for the second.

`Cc1cccc(N[C@@H]2CN(S(=O)(=O)c3cn(C)cn3)C[C@H]2c2ccc(F)cc2)c1` (relative stereo) [Example 85, trans-4-(4-fluorophenyl)-1-[(1-methyl-1H-imidazol-4-yl)sulfonyl]-N-(3-methylphenyl)pyrrolidin-3-amine] and `Cn1cnc(S(=O)(=O)N2C[C@@H](Nc3cccc(F)c3)[C@H](c3ccc(F)cc3)C2)c1` (relative stereo) [Example 91, trans-N-(3-fluorophenyl)-4-(4-fluorophenyl)-1-[(1-methyl-1H-imidazol-4-yl)sulfonyl]pyrrolidin-3-amine] cannot be ordered by Ki: ≤ 0.01 µM for the first, ≤ 0.1 µM for the second.

`Cc1ccc(N[C@@H]2CN(S(=O)(=O)c3cn(C)cn3)C[C@H]2c2ccc(F)cc2)cc1` (relative stereo) [Example 86, trans-4-(4-fluorophenyl)-1-[(1-methyl-1H-imidazol-4-yl)sulfonyl]-N-(4-methylphenyl)pyrrolidin-3-amine] and `Cn1cnc(S(=O)(=O)N2C[C@@H](Nc3ccc(F)cc3)[C@H](c3ccc(F)cc3)C2)c1` (relative stereo) [Example 92, trans-N,4-bis(4-fluorophenyl)-1-[(1-methyl-1H-imidazol-4-yl)sulfonyl]pyrrolidin-3-amine] cannot be ordered by Ki: ≤ 1 µM for the first, ≤ 0.1 µM for the second.

`Cn1cnc(S(=O)(=O)N2C[C@@H](Nc3ccccc3C(F)(F)F)[C@H](c3ccc(F)cc3)C2)c1` (relative stereo) [Example 87, trans-4-(4-fluorophenyl)-1-[(1-methyl-1H-imidazol-4-yl)sulfonyl]-N-[2-(trifluoromethyl)phenyl]pyrrolidin-3-amine] and `Cn1cnc(S(=O)(=O)N2C[C@@H](Nc3ccccc3Cl)[C@H](c3ccc(F)cc3)C2)c1` (relative stereo) [Example 93, trans-N-(2-chlorophenyl)-4-(4-fluorophenyl)-1-[(1-methyl-1H-imidazol-4-yl)sulfonyl]pyrrolidin-3-amine] cannot be ordered by Ki: ≤ 10 µM for the first, ≤ 1 µM for the second.

`Cn1cnc(S(=O)(=O)N2C[C@@H](Nc3ccc(C(F)(F)F)cc3)[C@H](c3ccc(F)cc3)C2)c1` (relative stereo) [Example 89, trans-4-(4-fluorophenyl)-1-[(1-methyl-1H-imidazol-4-yl)sulfonyl]-N-[4-(trifluoromethyl)phenyl]pyrrolidin-3-amine] and `Cn1cnc(S(=O)(=O)N2C[C@@H](Nc3ccc(Cl)cc3)[C@H](c3ccc(F)cc3)C2)c1` (relative stereo) [Example 95, trans-N-(4-chlorophenyl)-4-(4-fluorophenyl)-1-[(1-methyl-1H-imidazol-4-yl)sulfonyl]pyrrolidin-3 - amine] cannot be ordered by Ki: ≤ 0.1 µM for the first, ≤ 1 µM for the second.

`Cn1cnc(S(=O)(=O)N2C[C@@H](Nc3cccc(Cl)c3)[C@H](c3ccc(F)cc3)C2)c1` (relative stereo) [Example 94, trans-N-(3-chlorophenyl)-4-(4-fluorophenyl)-1-[(1-methyl-1H-imidazol-4-yl)sulfonyl]pyrrolidin-3-amine] and `Cn1cnc(S(=O)(=O)N2C[C@@H](NC(=O)c3cccc(C(F)(F)F)c3Cl)[C@H](c3ccccc3Cl)C2)c1` (relative stereo) [Example 115, 2-chloro-N-{trans-4-(2-chlorophenyl)-1-[(1-methyl-1H-imidazol-4-yl)sulfonyl]pyrrolidin-3-yl}-3-(trifluoromethyl)benzamide] cannot be ordered by Ki: ≤ 0.01 µM for the first, ≤ 0.1 µM for the second.

`CCS(=O)(=O)N1C[C@@H](NC(=O)c2cc(Cl)cc(Cl)c2)[C@H](c2ccccc2)C1` (relative stereo) [Example 123, 3,5-dichloro-N-[trans-1-(ethylsulfonyl)-4-phenylpyrrolidin-3-yl]benzamide] and `CCCS(=O)(=O)N1C[C@@H](NC(=O)c2cc(Cl)cc(Cl)c2)[C@H](c2ccccc2)C1` (relative stereo) [Example 126, 3,5-dichloro-N-[trans-4-phenyl-1-(propylsulfonyl)pyrrolidin-3-yl]benzamide] cannot be ordered by Ki: ≤ 10 µM for the first, ≤ 10 µM for the second.

`CCS(=O)(=O)N1C[C@@H](NC(=O)c2cccc(C(F)(F)F)c2Cl)[C@H](c2ccccc2)C1` (relative stereo) [Example 124, 2-chloro-N-[trans-1-(ethylsulfonyl)-4-phenylpyrrolidin-3-yl]-3-(trifluoromethyl)benzamide] and `CCCS(=O)(=O)N1C[C@@H](NC(=O)c2cccc(C(F)(F)F)c2Cl)[C@H](c2ccccc2)C1` (relative stereo) [Example 127, 2-chloro-N-[trans-4-phenyl-1-(propylsulfonyl)pyrrolidin-3-yl]-3-(trifluoromethyl)benzamide] cannot be ordered by Ki: ≤ 10 µM for the first, ≤ 10 µM for the second.

`CCCS(=O)(=O)N1C[C@@H](NC(=O)c2ccc(C(F)(F)F)cc2)[C@H](c2ccccc2)C1` (relative stereo) [Example 125, N-[trans-4-phenyl-1-(propylsulfonyl)pyrrolidin-3-yl]-4-(trifluoromethyl)benzamide] and `O=C(N[C@@H]1CN(S(=O)(=O)CC2CC2)C[C@H]1c1ccccc1)c1ccc(C(F)(F)F)cc1` (relative stereo) [Example 128, N-{trans-1-[(cyclopropylmethyl)sulfonyl]-4-phenylpyrrolidin-3-yl}-4-(trifluoromethyl)benzamide] cannot be ordered by Ki: > 10 µM for the first, ≤ 10 µM for the second.

`O=C(N[C@@H]1CN(S(=O)(=O)CC2CC2)C[C@H]1c1ccccc1)c1cc(Cl)cc(Cl)c1` (relative stereo) [Example 129, 3,5-dichloro-N-{trans-1-[(cyclopropylmethyl)sulfonyl]-4-phenylpyrrolidin-3-yl}benzamide] and `O=C(N[C@@H]1CN(S(=O)(=O)CC2CC2)C[C@H]1c1ccccc1)c1cccc(C(F)(F)F)c1Cl` (relative stereo) [Example 130, 2-chloro-N-{trans-1-[(cyclopropylmethyl)sulfonyl]-4-phenylpyrrolidin-3-yl}-3-(trifluoromethyl)benzamide] cannot be ordered by Ki: > 10 µM for the first, > 10 µM for the second.

`CCS(=O)(=O)N1C[C@@H](Nc2cccc(C#N)c2)[C@H](c2ccccc2)C1` (relative stereo) [Example 131, 3-{[trans-1-(ethylsulfonyl)-4-phenylpyrrolidin-3-yl]amino}benzonitrile] and `CCCS(=O)(=O)N1C[C@@H](Nc2cccc(C#N)c2)[C@H](c2ccccc2)C1` (relative stereo) [Example 132, 3-{[trans-4-phenyl-1-(propylsulfonyl)pyrrolidin-3-yl]amino}benzonitrile] cannot be ordered by Ki: > 10 µM for the first, ≤ 10 µM for the second.

With `N#Cc1cccc(N[C@@H]2CN(S(=O)(=O)CC3CC3)C[C@H]2c2ccccc2)c1` (relative stereo) [Example 133, 3-({trans-1-[(cyclopropylmethyl)sulfonyl]-4-phenylpyrrolidin-3-yl}amino)benzonitrile] the Ki was ≤ 10 µM.
